Test results as given in patent publication US12194048B2, “Use of pyrrolopyridine derivatives for preventing or treating inflammatory diseases” (VORONOI CO., LTD., priority 2020, dated 2025).

Columns and labels:
CYP 2C19 = CYP 2C19 (Homo sapiens, UniProt P33261); assay: CYP inhibition assay (luminescence); assay type: in vitro ADME
Text: (§1) DDI (Drug Interaction) can be observed in a CYP inhibition assay. A luminescence assay was used to measure and evaluate inhibition activity against 1A2, 2C9, 2C19, 2D6 and 3A4, which are important Phase 1 drug metabolism CYP450 enzymes involved in drug metabolism.

CYP 1A2 = CYP 1A2 (Homo sapiens, UniProt P05177); assay: CYP inhibition assay (luminescence); assay type: in vitro ADME
CYP 1A2, sequence (P05177 whole entry): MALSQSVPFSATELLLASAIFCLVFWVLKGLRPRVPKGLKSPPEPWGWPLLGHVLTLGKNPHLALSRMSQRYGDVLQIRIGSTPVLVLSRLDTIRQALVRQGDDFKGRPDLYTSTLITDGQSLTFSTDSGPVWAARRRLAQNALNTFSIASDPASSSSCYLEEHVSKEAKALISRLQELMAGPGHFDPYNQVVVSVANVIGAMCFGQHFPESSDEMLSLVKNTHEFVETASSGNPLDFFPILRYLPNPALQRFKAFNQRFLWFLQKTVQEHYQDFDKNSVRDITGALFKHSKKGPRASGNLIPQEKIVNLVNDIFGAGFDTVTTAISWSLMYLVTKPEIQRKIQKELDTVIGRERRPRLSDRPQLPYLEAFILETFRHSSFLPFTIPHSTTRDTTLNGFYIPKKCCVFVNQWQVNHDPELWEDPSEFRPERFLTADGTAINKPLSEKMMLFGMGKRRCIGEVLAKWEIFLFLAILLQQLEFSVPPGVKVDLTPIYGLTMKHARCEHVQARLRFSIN
Text: as §1

CYP 2D6 = CYP 2D6 (Homo sapiens, UniProt P10635); assay: CYP inhibition assay (luminescence); assay type: in vitro ADME
CYP 2D6, sequence (P10635 whole entry): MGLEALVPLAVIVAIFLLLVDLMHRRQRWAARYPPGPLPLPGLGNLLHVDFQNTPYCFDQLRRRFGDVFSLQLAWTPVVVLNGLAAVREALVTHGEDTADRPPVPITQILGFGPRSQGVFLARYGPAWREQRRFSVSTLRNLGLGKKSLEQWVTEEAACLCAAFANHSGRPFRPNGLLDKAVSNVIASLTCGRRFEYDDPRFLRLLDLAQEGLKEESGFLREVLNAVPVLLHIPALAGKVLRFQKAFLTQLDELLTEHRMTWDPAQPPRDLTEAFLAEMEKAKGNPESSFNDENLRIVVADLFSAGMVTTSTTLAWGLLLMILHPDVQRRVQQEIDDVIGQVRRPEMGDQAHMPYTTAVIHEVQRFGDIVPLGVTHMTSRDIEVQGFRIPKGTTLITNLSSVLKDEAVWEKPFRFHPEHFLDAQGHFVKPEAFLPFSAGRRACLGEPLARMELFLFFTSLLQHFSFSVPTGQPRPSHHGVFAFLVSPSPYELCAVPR
Text: as §1

CYP 3A4 = CYP 3A4 (Homo sapiens, UniProt P08684); assay: CYP inhibition assay (luminescence); assay type: in vitro ADME
CYP 3A4, sequence (P08684 whole entry): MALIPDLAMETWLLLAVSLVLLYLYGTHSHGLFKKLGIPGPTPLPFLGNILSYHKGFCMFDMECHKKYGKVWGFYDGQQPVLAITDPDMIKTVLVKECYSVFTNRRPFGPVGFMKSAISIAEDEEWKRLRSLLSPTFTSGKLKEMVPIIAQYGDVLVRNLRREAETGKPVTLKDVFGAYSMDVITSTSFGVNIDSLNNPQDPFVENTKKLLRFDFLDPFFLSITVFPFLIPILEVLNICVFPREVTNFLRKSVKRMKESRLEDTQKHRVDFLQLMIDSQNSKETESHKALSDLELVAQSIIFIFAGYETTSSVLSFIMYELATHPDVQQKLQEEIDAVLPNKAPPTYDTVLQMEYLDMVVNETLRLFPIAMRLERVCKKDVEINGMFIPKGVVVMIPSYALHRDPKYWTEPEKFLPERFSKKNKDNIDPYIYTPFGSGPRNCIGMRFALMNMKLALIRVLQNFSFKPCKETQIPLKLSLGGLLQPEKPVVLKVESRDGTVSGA
Text: as §1

CYP 2C9 = CYP 2C9 (Homo sapiens, UniProt P11712); assay: CYP inhibition assay (luminescence); assay type: in vitro ADME
CYP 2C9, sequence (P11712 whole entry): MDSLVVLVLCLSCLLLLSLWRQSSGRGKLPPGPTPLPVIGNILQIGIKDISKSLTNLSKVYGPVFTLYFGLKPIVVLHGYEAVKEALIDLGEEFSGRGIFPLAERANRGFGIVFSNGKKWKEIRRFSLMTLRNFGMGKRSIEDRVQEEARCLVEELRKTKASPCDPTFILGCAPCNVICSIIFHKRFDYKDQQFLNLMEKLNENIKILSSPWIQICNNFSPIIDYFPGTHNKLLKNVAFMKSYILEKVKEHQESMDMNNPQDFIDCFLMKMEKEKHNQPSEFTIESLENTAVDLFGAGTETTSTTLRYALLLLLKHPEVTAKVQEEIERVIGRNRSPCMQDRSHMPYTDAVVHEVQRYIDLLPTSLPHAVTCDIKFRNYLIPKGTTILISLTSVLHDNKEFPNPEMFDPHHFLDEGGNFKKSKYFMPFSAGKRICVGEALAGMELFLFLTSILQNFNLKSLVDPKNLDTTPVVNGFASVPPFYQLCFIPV
Text: as §1

[1] = tested on: peripheral blood mononuclear cells of inflammatory bowel disease patients; assay: Inflammatory cytokine expression in PBMC of inflammatory bowel disease patients; assay type: cell-based, human; details: treated 24 hours; FIG. 4
NF-κb signaling pathway = assay: Intranuclear movement of p50 and p65 in LPS-stimulated THP-1 cells; assay type: cell-based; details: LPS-treated THP-1 cells; FIG. 1b

CYP 2C19, sequence (P33261 whole entry): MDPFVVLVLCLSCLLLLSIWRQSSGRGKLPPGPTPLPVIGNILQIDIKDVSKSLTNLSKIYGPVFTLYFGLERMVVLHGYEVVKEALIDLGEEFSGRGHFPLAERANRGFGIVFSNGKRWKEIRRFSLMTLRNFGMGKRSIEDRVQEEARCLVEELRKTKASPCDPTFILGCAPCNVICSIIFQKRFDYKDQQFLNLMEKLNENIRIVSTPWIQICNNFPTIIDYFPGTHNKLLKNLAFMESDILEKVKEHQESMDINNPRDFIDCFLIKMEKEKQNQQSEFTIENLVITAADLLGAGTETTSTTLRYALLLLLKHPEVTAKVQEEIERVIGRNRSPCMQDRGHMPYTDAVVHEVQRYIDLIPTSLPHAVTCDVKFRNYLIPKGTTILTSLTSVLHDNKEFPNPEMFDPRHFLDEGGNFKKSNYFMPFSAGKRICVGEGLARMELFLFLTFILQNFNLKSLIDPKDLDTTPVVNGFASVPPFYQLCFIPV

**Q.** With `CCNc1cc(Nc2ccc(C(=O)N3CCC(N4CCOCC4)CC3)cc2OC)nc2[nH]cc(C(F)(F)F)c12` [Compound 1, (4-((4-(ethylamino)-3-(trifluoromethyl)-1H-pyrrolo[2,3-b]pyridine-6-yl)amino)-3-methoxyphenyl)(4-morpholinopiperidine-1-yl)methanone] as the compound, how does the “CYP (10 μM) (% of control activity 2C19)” value (CYP 2C19) read?
**A.** 84%

**Q.** And the “CYP (10 μM) (% of control activity 1A2)” value (CYP 1A2)?
**A.** 86%

**Q.** And the “CYP (10 μM) (% of control activity 2D6)” value (CYP 2D6)?
**A.** 92%

**Q.** And the “CYP 3A4 enzyme inhibition activity (in words)” value (CYP 3A4)?
**A.** almost no enzyme inhibition activity

**Q.** What about the “CYP (10 μM) (% of control activity 3A4)” value (CYP 3A4; 10 μM) of the same compound?
**A.** 72%

**Q.** What about the “CYP (10 μM) (% of control activity 2C9)” value (CYP 2C9) of the same compound?
**A.** 74%

**Q.** And the “expression of IL-6” value [1]?
**A.** effectively inhibiting

**Q.** And the “expression of IL-17A” value [1]?
**A.** effectively inhibiting

**Q.** And the “expression of TNF-α” value [1]?
**A.** effectively inhibiting

**Q.** What about the “intranuclear movement of p50” value (NF-κb signaling pathway) of the same compound?
**A.** effectively inhibited

**Q.** And the “intranuclear movement of p65” value (NF-κb signaling pathway)?
**A.** effectively inhibited
